Measurements reported in patent US20230293407A1, “Compositions Comprising (Bio)-Alkanediols with Antimicrobials for Product Protection” (Symrise AG, priority 2020, published 2023).

Legend:
[1] = system: Pseudomonas aeruginosa; assay: preservation efficacy test (PET), European Pharmacopoeia 5.1.3; type: cell-based
[2] = system: Staphylococcus aureus; assay: as above; type: cell-based
[3] = system: Escherichia coli; assay: as above; type: cell-based; settings: for number of microorganisms, 14 days / number of microorganisms, 28 days: Escherichia coli (EC)
[4] = system: Candida albicans; assay: as above; type: cell-based; settings: for count at 2 days / count at 7 days / count at 14 days / count at 28 days: CA, use concentration in label
[5] = system: Aspergillus brasiliensis; assay: as above; type: cell-based; settings: for count at 2 days / count at 7 days / count at 14 days / count at 28 days: AB, use concentration in label
[6] = system: bacteria; assay: preservation efficacy test (PET), overview of the effect against bacteria; type: cell-based; settings: PET in formulation, result in words on Table 7
[7] = system: yeast; assay: preservation efficacy test (PET), overview of the effect against yeast; type: cell-based, Candida albicans; settings: PET in formulation, result in words on Table 7
[8] = system: fungi/mould; assay: preservation efficacy test (PET), overview of the effect against fungi/mould; type: cell-based, Aspergillus brasiliensis; settings: PET in formulation, result in words on Table 7
[9] = maximum water solubility of alkanediols, visual observation; type: physicochemical; settings: ambient temperature after 24 h storage at 5° C.
Description: The water solubility of a substance is the saturation mass concentration of the substance in water at a given temperature. The determination of the solubility in water relates to essentially pure substances which are stable in water and not volatile. The determination of the water solubility of the alkanediols is further described in the following Example 2.
For the determination of the maximum water solubility of an alkanediol, water and different concentrations of the respective alkanediol were blended by stirring. […] The determination of whether the alkanediol has dissolved in water is based entirely on visual observation.

[10] = 14 days after inoculation, substance at given % in test formulation
[11] = 28 days after inoculation, substance at given % in test formulation
[12] = 2 days after inoculation, substance at given % in test formulation, listed as 0.2% 1,2-heptanediol
[13] = 7 days after inoculation, substance at given % in test formulation, listed as 0.2% 1,2-heptanediol
[14] = 28 days after inoculation, substance at given % in test formulation, listed as 0.2% 1,2-heptanediol
[15] = 28 days after inoculation, substance at given % in test formulation, listed as 0.4% 1,2-heptanediol
[16] = 2 days after inoculation, listed as 0.6% 1,2-heptanediol
[17] = 2 days after inoculation, listed as 0.8% 1,2-heptanediol
[18] = 7 days after inoculation, listed as 0.6% 1,2-heptanediol
[19] = 7 days after inoculation, listed as 0.8% 1,2-heptanediol
[20] = 14 days after inoculation, listed as 0.6% 1,2-heptanediol
[21] = 14 days after inoculation, listed as 0.8% 1,2-heptanediol
[22] = 28 days after inoculation, listed as 0.6% 1,2-heptanediol
[23] = 28 days after inoculation, listed as 0.8% 1,2-heptanediol

- Maximum solubility in water [9]: 2.5 % by weight
SMILES: CCCCCC(O)CO (stereo not drawn) [1,2-heptanediol]
- PA germ count, 2 days ([1]; 2 days after inoculation, substance at given % in test formulation): 1
- PA germ count, 7 days ([1]; 7 days after inoculation, substance at given % in test formulation): 1
- PA germ count, 14 days [1, 10]: 1
- PA germ count, 28 days [1, 11]: 1
- count at 2 days ([1]; PA, 2 days after inoculation, use concentration in label): 1
- count at 7 days ([1]; PA, 7 days after inoculation, use concentration in label): 1
- count at 14 days ([1]; PA, 14 days after inoculation, use concentration in label): 1
- count at 28 days ([1]; PA, 28 days after inoculation, use concentration in label): 1
- SA germ count, 2 days [2, 12]: 95.000
- SA germ count, 7 days [2, 13]: 1
- SA germ count, 14 days [2, 10]: 1
- SA germ count, 28 days [2, 11]: 1
- number of microorganisms, 2 days ([2]; PET in shampoo, Staphylococcus aureus (SA), 2 days after inoculation): 10
- number of microorganisms, 7 days ([2]; PET in shampoo, Staphylococcus aureus (SA), 7 days after inoculation): 10
- number of microorganisms, 14 days ([2]; PET in shampoo, Staphylococcus aureus (SA), 14 days after inoculation): 1
- number of microorganisms, 28 days ([2]; PET in shampoo, Staphylococcus aureus (SA), 28 days after inoculation): 1
- number of microorganisms, 14 days ([2]; PET, Staphylococcus aureus (SA), 14 days after inoculation): 1
- number of microorganisms, 28 days ([2]; PET, Staphylococcus aureus (SA), 28 days after inoculation): 1
- count at 2 days ([2]; SA, 2 days after inoculation, use concentration in label, listed as 0.6% 1,2-heptanediol): 1
- count at 2 days ([2]; SA, 2 days after inoculation, use concentration in label, listed as 0.8% 1,2-heptanediol): 1
- count at 7 days ([2]; SA, 7 days after inoculation, use concentration in label, listed as 0.6% 1,2-heptanediol): 1
- count at 7 days ([2]; SA, 7 days after inoculation, use concentration in label, listed as 0.8% 1,2-heptanediol): 1
- count at 14 days ([2]; SA, 14 days after inoculation, use concentration in label): 1
- count at 28 days ([2]; SA, 28 days after inoculation, use concentration in label): 1
- EC germ count, 2 days [3, 12]: 38.000
- EC germ count, 7 days [3, 13]: 73
- EC germ count, 14 days ([3]; 14 days after inoculation, substance at given % in test formulation, listed as 0.2% 1,2-heptanediol): 1
- EC germ count, 14 days ([3]; 14 days after inoculation, substance at given % in test formulation, listed as 0.4% 1,2-heptanediol): 1
- EC germ count, 28 days [3, 14]: 1
- EC germ count, 28 days [3, 15]: 1
- count at 2 days ([3]; EC, 2 days after inoculation, use concentration in label, listed as 0.6% 1,2-heptanediol): 1
- count at 2 days ([3]; EC, 2 days after inoculation, use concentration in label, listed as 0.8% 1,2-heptanediol): 1
- count at 7 days ([3]; EC, 7 days after inoculation, use concentration in label, listed as 0.6% 1,2-heptanediol): 1
- count at 7 days ([3]; EC, 7 days after inoculation, use concentration in label, listed as 0.8% 1,2-heptanediol): 1
- count at 14 days ([3]; EC, 14 days after inoculation, use concentration in label): 1
- count at 28 days ([3]; EC, 28 days after inoculation, use concentration in label): 1
- number of microorganisms, 14 days ([3]; PET in shampoo, 14 days after inoculation): 200.000
- number of microorganisms, 28 days ([3]; PET in shampoo, 28 days after inoculation): 1
- number of microorganisms, 14 days ([3]; PET, 14 days after inoculation): 1
- number of microorganisms, 28 days ([3]; PET, 28 days after inoculation): 1
- CA germ count, 28 days [4, 14]: 620.000
- count at 2 days [4, 16]: 69.000
- count at 2 days [4, 17]: 68.000
- count at 7 days [4, 18]: 2.800
- count at 7 days [4, 19]: 1
- count at 14 days [4, 20]: 1
- count at 14 days [4, 21]: 1
- count at 28 days [4, 22]: 1
- count at 28 days [4, 23]: 1
- number of microorganisms, 2 days ([4]; PET in shampoo, Candida albicans (CA), 2 days after inoculation): 220.000
- number of microorganisms, 7 days ([4]; PET in shampoo, Candida albicans (CA), 7 days after inoculation): 62.000
- number of microorganisms, 14 days ([4]; PET in shampoo, Candida albicans (CA), 14 days after inoculation): 8.100
- number of microorganisms, 28 days ([4]; PET in shampoo, Candida albicans (CA), 28 days after inoculation): 1
- AB germ count, 28 days [5, 15]: 1
- count at 2 days [5, 16]: 510.000
- count at 2 days [5, 17]: 670.000
- count at 7 days [5, 18]: 16.000
- count at 7 days [5, 19]: 410.000
- count at 14 days [5, 20]: 51.000
- count at 14 days [5, 21]: 63.000
- count at 28 days ([5]; 28 days after inoculation, listed as 0.4% 1,2-heptanediol): 1
- count at 28 days [5, 22]: 1
- count at 28 days [5, 23]: 1.100
- efficacy against Aspergillus brasiliensis ([5]; PET in formulation, result in words on Table 7): significantly efficacy
- number of microorganisms, 2 days ([5]; PET in shampoo, Aspergillus brasiliensis (AB), 2 days after inoculation): 240.000
- number of microorganisms, 7 days ([5]; PET in shampoo, Aspergillus brasiliensis (AB), 7 days after inoculation): 220.000
- number of microorganisms, 14 days ([5]; PET in shampoo, Aspergillus brasiliensis (AB), 14 days after inoculation): 150.000
- number of microorganisms, 28 days ([5]; PET in shampoo, Aspergillus brasiliensis (AB), 28 days after inoculation): 19.000
- antimicrobial efficacy against bacteria [6]: concentration dependent antimicrobial efficacy
- antimicrobial efficacy against yeast [7]: concentration dependent antimicrobial efficacy
- antimicrobial efficacy against fungi [8]: concentration dependent antimicrobial efficacy
